Results from ChEMBL document CHEMBL1201862, “PubChem BioAssay data set” (2004).
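Five compound concentrations were applied to cells in 96-well plates for 48 hours; endpoints were derived by simple linear interpolation of the resulting dose-response curve. GI50 marks 50% less growth.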 Calls of active or inactive are those of the source. No stated cut-off is given here; in the data, active = GI50 up to about 1.1 µM and inactive = higher.

Legend:
Experiment in all cases: growth of human tumour cells (NCI), 48 h
[1] = tested on: DLD-1
[2] = tested on: DMS-114
[3] = tested on: HCT-15
[4] = tested on: KM-20L2
[5] = tested on: M19-MEL
[6] = tested on: NCI-H460
[7] = tested on: SK-MEL-28
[8] = tested on: SNB-78
[9] = tested on: DMS-273
[10] = tested on: HCT-116
[11] = tested on: HOP-18
[12] = tested on: LOX IMVI
[13] = tested on: RXF 393
[14] = tested on: SR
[15] = tested on: BT-549
[16] = tested on: DU-145
[17] = tested on: Hs-578T
[18] = tested on: MCF7
[19] = tested on: MDA-MB-231
[20] = tested on: T47D

SMILES	GI50 [1]	GI50 [2]	GI50 [3] [µM]	GI50 [4]	GI50 [5]	GI50 [6]	GI50 [7]	GI50 [8]	GI50 [9]	GI50 [10]	GI50 [11]	GI50 [12]	GI50 [13]	GI50 [14]	GI50 [15]	GI50 [16]	GI50 [17]	GI50 [18]	GI50 [19]	GI50 [20]
COc1ccc(/C=C/C(=O)C(C)(C)C)cc1OC	65.9 µM (inactive)	39.7 µM (inactive)	38.5	41.8 µM (inactive)	> 100 µM (inactive)	> 100 µM (inactive)	74.6 µM (inactive)	38 µM (inactive)	–	–	–	–	–	–	–	–	–	–	–	–
Cc1c2ccccc2c(CO)c2cc(F)c3ccccc3c12	14.8 µM (inactive)	18.1 µM (inactive)	–	21.1 µM (inactive)	35.8 µM (inactive)	–	44 µM (inactive)	24 µM (inactive)	14.8 µM (inactive)	19.3 µM (inactive)	28.5 µM (inactive)	17.1 µM (inactive)	24.7 µM (inactive)	27 µM (inactive)	–	–	–	–	–	–
Cc1ccc(/N=N/C(C2=NC(=O)CS2)c2nc3ccccc3[nH]2)cc1 (stereo not drawn)	> 100 µM (inactive)	> 100 µM (inactive)	> 100	> 100 µM (inactive)	> 100 µM (inactive)	> 100 µM (inactive)	> 100 µM (inactive)	–	> 100 µM (inactive)	> 100 µM (inactive)	–	–	–	> 100 µM (inactive)	–	–	–	–	–	–
Cc1cn(C2CC(n3cc(Cn4ccc(=O)[nH]c4=O)nn3)C(CO)O2)c(=O)[nH]c1=O (stereo not drawn)	–	–	> 100	–	–	–	> 100 µM (inactive)	–	–	> 100 µM (inactive)	–	–	> 100 µM (inactive)	< 0.01 µM (active)	> 100 µM (inactive)	> 100 µM (inactive)	> 100 µM (inactive)	> 100 µM (inactive)	> 100 µM (inactive)	> 100 µM (inactive)
Cc1ccc2c(O)cc(-c3ccc(F)cc3)nc2n1	–	–	18.5	–	–	–	49 µM (inactive)	–	–	–	–	30.1 µM (inactive)	–	7.4 µM (inactive)	86.3 µM (inactive)	81.7 µM (inactive)	26.5 µM (inactive)	26.4 µM (inactive)	63 µM (inactive)	41.9 µM (inactive)
NC(=O)c1ncn2c1CNC(=O)C2	–	–	> 100	–	–	> 100 µM (inactive)	> 100 µM (inactive)	–	–	–	–	–	> 100 µM (inactive)	> 100 µM (inactive)	> 100 µM (inactive)	> 100 µM (inactive)	> 100 µM (inactive)	> 100 µM (inactive)	> 100 µM (inactive)	> 100 µM (inactive)
Nc1nc(Cl)cc(NCCCNc2cc(Cl)nc(N)n2)n1	> 100 µM (inactive)	> 100 µM (inactive)	> 100	> 100 µM (inactive)	> 100 µM (inactive)	> 100 µM (inactive)	> 100 µM (inactive)	–	> 100 µM (inactive)	> 100 µM (inactive)	> 100 µM (inactive)	> 100 µM (inactive)	> 100 µM (inactive)	> 100 µM (inactive)	–	–	–	–	–	–
CCCCCCNC(=O)C(C)C1CCC2(C)C=CC(=O)C(C)=C2C1O (stereo not drawn)	> 100 µM (inactive)	45.3 µM (inactive)	> 100	> 100 µM (inactive)	–	> 100 µM (inactive)	> 100 µM (inactive)	> 100 µM (inactive)	> 100 µM (inactive)	> 100 µM (inactive)	> 100 µM (inactive)	> 100 µM (inactive)	> 100 µM (inactive)	–	–	–	–	> 100 µM (inactive)	–	–
